Literature values as cited in article PMC12087591 (Drug Design, Development and Therapy, 2025).

Tested on: COVID-19
Details: unvaccinated COVID-19 patients

## CC(C)(C)[C@H](NC(=O)C(F)(F)F)C(=O)N1C[C@H]2[C@@H]([C@H]1C(=O)N[C@H](C#N)C[C@@H]1CCNC1=O)C2(C)C [nirmatrelvir]
  reduction of hospitalization risk: 89%
